Reference: PubChem BioAssay (NCI)
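All cell lines were grown in 96-well plates and treated with compound for 48 hours. The concentration for 50% growth inhibition is given as GI50. The concentration for full growth arrest is given as TGI.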

Tests used:
Assay in all cases: NCI anticancer screen, dose series, 48 h
[1] = tested on: UO-31 renal
[2] = tested on: SK-MEL-28 melanoma
[3] = tested on: KM12 colon
[4] = tested on: LXFL 529 NSCLC
[5] = tested on: LOX IMVI melanoma
[6] = tested on: HOP-92 NSCLC
[7] = tested on: OVCAR-3 ovarian
[8] = tested on: HCT-15 colon
[9] = tested on: HCT-116 colon
[10] = tested on: OVCAR-8 ovarian
[11] = tested on: MOLT-4 leukemia
[12] = tested on: HL-60(TB) leukemia
[13] = tested on: SK-OV-3 ovarian
[14] = tested on: CCRF-CEM leukemia
[15] = tested on: EKVX NSCLC
[16] = tested on: OVCAR-4 ovarian
[17] = tested on: XF 498 CNS
[18] = tested on: SW-620 colon
[19] = tested on: OVCAR-5 ovarian
[20] = tested on: COLO 205 colon
[21] = tested on: RXF 393 renal
[22] = tested on: M19-MEL melanoma
[23] = tested on: SF-539 CNS
[24] = tested on: DMS 273 small cell lung
[25] = tested on: SF-268 CNS
[26] = tested on: KM20L2 colon
[27] = tested on: CAKI-1 renal
[28] = tested on: SK-MEL-2 melanoma
[29] = tested on: SNB-78 CNS
[30] = tested on: HT29 colon
[31] = tested on: T-47D breast
[32] = tested on: SK-MEL-5 melanoma
[33] = tested on: DLD-1 colon
[34] = tested on: SNB-75 CNS
[35] = tested on: ACHN renal
[36] = tested on: DU-145 prostate
[37] = tested on: HOP-62 NSCLC
[38] = tested on: PC-3 prostate
[39] = tested on: MALME-3M melanoma
[40] = tested on: NCI/ADR-RES ovarian
[41] = tested on: U251 CNS
[42] = tested on: M14 melanoma
[43] = tested on: NCI-H226 lung
[44] = tested on: UACC-62 melanoma
[45] = tested on: SF-295 CNS
[46] = tested on: 786-0 renal
[47] = tested on: NCI-H460 lung
[48] = tested on: HS 578T breast
[49] = tested on: HOP-18 NSCLC
[50] = tested on: MDA-MB-435
[51] = tested on: SR leukemia
[52] = tested on: HCC-2998 colon
[53] = tested on: A549 NSCLC
[54] = tested on: IGROV1 ovarian
[55] = tested on: RPMI-8226 leukemia
[56] = tested on: DMS 114 small cell lung
[57] = tested on: SNB-19 CNS
[58] = tested on: UACC-257 melanoma
[59] = tested on: SN12C renal
[60] = tested on: A498 renal
[61] = tested on: MDA-MB-231 breast
[62] = tested on: NCI-H23 lung
[63] = tested on: K-562 leukemia
[64] = tested on: MCF7 breast
[65] = tested on: TK-10 renal
[66] = tested on: NCI-H522 lung

Which results are given for N#CC1C[C@@H]2CC3(CCC2CN1C(=O)c1ccccc1)OCCO3 (stereo partly drawn)?
TGI [1]: > 100 µM; TGI [2]: > 100 µM; TGI [3]: > 100 µM; TGI [4]: > 100 µM; TGI [5]: > 100 µM; TGI [6]: > 100 µM; TGI [7]: > 100 µM; TGI [8]: > 100 µM; TGI [9]: > 100 µM; TGI [10]: > 100 µM; TGI [11]: > 100 µM; TGI [12]: > 100 µM; TGI [13]: > 100 µM; TGI [14]: > 100 µM; TGI [15]: > 100 µM; TGI [16]: > 100 µM; TGI [17]: > 100 µM; TGI [18]: > 100 µM; TGI [19]: > 100 µM; TGI [20]: > 100 µM; TGI [21]: > 100 µM; TGI [22]: > 100 µM; TGI [23]: > 100 µM; TGI [24]: > 100 µM; TGI [25]: > 100 µM; TGI [26]: > 100 µM; GI50 [27]: > 100 µM; TGI [27]: > 100 µM; TGI [28]: > 21.6 µM; TGI [29]: > 100 µM; TGI [30]: > 100 µM; GI50 [31]: > 100 µM; TGI [31]: > 100 µM; TGI [32]: > 100 µM; TGI [33]: > 100 µM; TGI [34]: > 100 µM; TGI [35]: > 100 µM; GI50 [36]: > 100 µM; TGI [36]: > 100 µM; TGI [37]: > 100 µM; GI50 [38]: > 100 µM; TGI [38]: > 100 µM; TGI [39]: > 100 µM; GI50 [40]: > 100 µM; TGI [40]: > 100 µM; TGI [41]: > 100 µM; TGI [42]: > 100 µM; GI50 [43]: > 100 µM; TGI [43]: > 100 µM; TGI [44]: > 100 µM; TGI [45]: > 100 µM; TGI [46]: > 100 µM; TGI [47]: > 100 µM; GI50 [48]: > 100 µM; TGI [48]: > 100 µM; TGI [49]: > 100 µM; GI50 [50]: > 100 µM; TGI [50]: > 100 µM; TGI [51]: > 100 µM; TGI [52]: > 100 µM; TGI [53]: > 100 µM; TGI [54]: > 100 µM; TGI [55]: > 100 µM; TGI [56]: > 100 µM; TGI [57]: > 100 µM; TGI [58]: > 100 µM; TGI [59]: > 100 µM; TGI [60]: > 100 µM; GI50 [61]: > 100 µM; TGI [61]: > 100 µM; TGI [62]: > 100 µM; TGI [63]: > 100 µM; GI50 [64]: > 100 µM; TGI [64]: > 100 µM; TGI [65]: > 100 µM

Which TGI [66] does the source give for Cc1[nH]c(=O)nc(N/N=C/c2ccc(O)cc2)c1C(=O)Nc1ccc(O)cc1 here?
The TGI was over 100 µM.

What about the TGI [1] of the same compound?
Its TGI is over 100 µM.

And the TGI [2]?
The TGI was over 100 µM.

What about the TGI [4] of the same compound?
Its TGI is over 100 µM.

What about the TGI [6] of the same compound?
The TGI was over 100 µM.

What about the TGI [9] of the same compound?
The TGI was over 100 µM.

And the TGI [11]?
The TGI was over 100 µM.

What about the TGI [12] of the same compound?
The TGI was over 100 µM.

And the TGI [13]?
The TGI was over 100 µM.

What about the TGI [14] of the same compound?
Its TGI is over 100 µM.

What about the TGI [16] of the same compound?
The TGI was over 100 µM.

What about the TGI [17] of the same compound?
The TGI was over 100 µM.

And the TGI [20]?
Its TGI is over 100 µM.

What about the TGI [22] of the same compound?
The TGI was over 100 µM.

What about the TGI [23] of the same compound?
Its TGI is over 100 µM.

What about the TGI [24] of the same compound?
Its TGI is over 100 µM.

What about the TGI [25] of the same compound?
Its TGI is over 100 µM.

And the TGI [27]?
The TGI was over 100 µM.

And the TGI [28]?
Its TGI is over 100 µM.

And the TGI [29]?
The TGI was over 100 µM.

What about the TGI [33] of the same compound?
The TGI was over 100 µM.

And the TGI [34]?
Its TGI is over 100 µM.

What about the TGI [37] of the same compound?
Its TGI is over 100 µM.

And the TGI [39]?
Its TGI is over 100 µM.

What about the TGI [42] of the same compound?
Its TGI is over 100 µM.

What about the TGI [43] of the same compound?
Its TGI is over 100 µM.

And the TGI [44]?
The TGI was over 100 µM.

What about the TGI [46] of the same compound?
Its TGI is over 100 µM.

And the TGI [47]?
The TGI was over 100 µM.

And the TGI [51]?
Its TGI is over 100 µM.

And the TGI [52]?
Its TGI is over 100 µM.

And the TGI [54]?
Its TGI is over 100 µM.

And the TGI [55]?
The TGI was over 100 µM.

What about the TGI [56] of the same compound?
The TGI was over 100 µM.

And the TGI [59]?
The TGI was over 100 µM.

What about the TGI [60] of the same compound?
Its TGI is over 100 µM.

What about the TGI [62] of the same compound?
The TGI was over 100 µM.

And the TGI [63]?
The TGI was over 100 µM.
